Experimental data from patent publication US6608032B1, “Medicinal compositions” (Takara Shuzo Co., Ltd., priority 1999, dated 2003).

Test system: RAW264.7 cells
Experiment: Prostaglandin E2 generation by crude enzyme fraction of RAW264.7 cells pre-treated with sample and LPS
Assay type: cell-based
Conditions: cells treated with 200 μl of 10 mM sample per 20 ml, 5 hours before LPS
Protocol: (1) RAW264.7 cells (ATCC TIB 71) were suspended in Dulbecco's modified Eagle's medium (Bio Whittaker, 12-604F) containing 10% fetal calf serum (Gibco) at a concentration of 1×10^6 cells/ml. 20 ml of the suspension was added to a 10-cm Petri dish and the dish was incubated at 37° C. overnight in the presence of 5% CO2. 200 μl of a solution containing agarohexaose or DGE (obtained in Example 15-(2) below) at a concentration of 10 mM in water was added to the dish. The dish was incubated for 5 hours. 200 μl of a solution containing lipopolysaccharide (LPS, Sigma, L-2012) at a concentration of 100 μg/ml in water was added thereto. The dish was incubated for additional 12 hours. As a control, 200 μL of water was added in place of the sample. The cells were recovered by detaching the cells from the plate using a scraper and suspended in 0.1 M tris buffer (pH 8.0) containing 1 μg/ml pepstatin A (Sigma, P5318), 1 μg/ml leupeptin (Sigma, L2884) and 1 mM phenylmethylsulfonyl fluoride (Nacalai Tesque, 273-27). The cell membrane was destroyed by sonication. A supernatant collected by centrifugation was used as a crude enzyme fraction. The content of protein in the crude enzyme fraction was determined using Micro BCA Protein Assay Reagent (a product of Pierce sold by Takara Shuzo, P7411). 2.5 μL of 200 mM aqueous solution of glutathione (Nacalai Tesque, 170-50), 2.5 μL of a suspension containing L-adrenaline (Nacalai Tesque, 010-04) at a concentration of 200 mM in water, and 1 μL of 3 mM solution of arachidonic acid (Cayman, 90010.1) or 1 μL of 100 μg/mL solution of prostaglandin H2 (Cayman, 17020) were added to 100 μL of the sample from the crude enzyme fraction prepared as described above. The mixture was reacted at 37° C. for 30 minutes. The reaction was stopped by heating at 100° C. for 2 minutes. The content of prostaglandin E2 in the reaction mixture was measured using Prostaglandin E2 ELISA Kit (Neogen, 404110).

SMILES: OCC1OC(OC2C3COC2C(O)C(OC2C(O)C(CO)OC(OC4C5COC4C(O)C(OC4C(O)C(CO)OC(OC6C7COC6C(O)C(O)O7)C4O)O5)C2O)O3)C(O)C(O)C1O (centres unmarked) [Agarohexaose, agarohexaose]
- production of prostaglandin E2, arachidonic acid added (FIG. 13): suppressed as compared with the control
- production of prostaglandin E2, prostaglandin H2 added (FIG. 14): suppressed as compared with the control
